Measurements as given in patent US20080120731A1, “Transgenic Animal Models for Neurodevelopmental Disorders” (priority 2004, published 2008).
Where two headings read alike, the source gives them in different places.

Experiments:
[1] = tested on: APH1BC ^−/− mice; test: Locomotor activity (infrared beam breaks in activity monitor) after amphetamine; settings: 3 μg/kg intraparietally
[2] = tested on: APH1BC ^−/− mice; test: Open field locomotor activity (total distance traveled) after apomorphine; settings: 2 μg/kg subcutaneously; for activity at 0.002 mg/kg: Mus musculus, sc, 10 min
[3] = tested on: APH1BC^−/− mice; test: Prepulse inhibition (PPI) of acoustic startle after antipsychotic injection; type: in vivo
From the text: Schizophrenia is a complex disease characterized by delusions and hallucinations (so-called positive symptoms), affective and social disturbances (negative symptoms), but also by cognitive deficits. Disturbed information processing, and more specifically an impairment in the filtering of irrelevant stimuli, is thought to contribute to the disease phenotype by causing “sensory flooding”, which may lead to cognitive fragmentation. A psychophysical measure of (pre-attentive) information filtering is “prepulse inhibition” (PPI). […] The strength of this reflex response is read out by recording the amplitude of the eye-blink response that is part of the startling reaction. This way, the amplitude of the eye-blink response is a measure of the efficiency of the coupling of the sensory stimulus to the motor reflex programme. If the startle stimulus is preceded by a weak, non-startling “prepulse stimulus”, e.g. a tone just above background noise levels, the amplitude of the eye-blink response to the startle stimulus is strongly diminished in normal individuals. […] The “% prepulse inhibition (PPI)” is quantified as: 100−((A2/A1)*100), with A1 being the amplitude of the response to the startle stimulus and A2 the amplitude of the response to the same startle stimulus preceded by the prepulse stimulus. […] In rodents the motor reaction to a startle stimulus is quantified by placing mice into a restraining tube in a sound-proof cabin mounted onto a pressure sensitive platform. Upon presentation of the startling sound, the mouse flinches and the pressure it exerts via its limbs is recorded quantitatively as a ballistogram that can be analysed using appropriate software. This way, the effect of a preceding prepulse on the flinching reaction to a startle stimulus can be calculated.
For all trials, background noise was 70 db, the prepulse preceded the startle stimulus by 100 ms, the prepulse stimuli lasted 20 ms and the startle stimuli lasted 60 ms. […] For each of the four different combinations of prepulse and startle stimulus, the % PPI was calculated using the formula described above. […]

In the case of `CC(N)Cc1ccccc1` (stereo not shown) [amphetamine, Amphetamine], the “reaction of APH1BC ^−/− mice versus wild-type littermates (rise in activity, maximal activity, total activity over two hours)” value ([1]; p=0,06 for genotype effect) is reported as “reacted more strongly”, the “time of peak locomotor activity after injection” value ([1]; […]) is reported as 35 to 40 min and the “locomotor activity after drug administration” value ([1]; […], monitored 2 h after injection) is reported as “rose strongly and continuously”.
For `CN1CCc2cccc3c2[C@H]1Cc1ccc(O)c(O)c1-3` [apomorphine], the “reaction of APH1BC ^−/− mice versus wild-type littermates” value ([2]; p=0,045 two-tailed student's t test) was “reacted more strongly”, the activity at 0.002 mg/kg ([2]; read-out: residual activity (distance APO/distance placebo)*100%, APH1BC −/− mice, 10 min open field) was 27% and the activity at 0.002 mg/kg ([2]; read-out: residual activity (distance APO/distance placebo)*100%, wild type mice, 10 min open field) was 50%. The “effect on locomotion (total distance traveled in open field)” value ([2]; […], 10 min open field, p<0,001 for treatment effect) was “strong inhibition of locomotion”.
In the case of `O=C(CCCN1CCC(O)(c2ccc(Cl)cc2)CC1)c1ccc(F)cc1` [haloperidol, Haloperidol], the “PPI in APH1BC^−/− mice relative to wild type levels” value ([3]; APH1BC^−/− mice, pp 74/p110 and pp 78/p110 trials, 1 μg/kg injected intra-parietally, PPI measured 45 min after injection) is reported as “essentially normalized”, the “effects on (improvements of) PPI in the p100 trials” value ([3]; p100 trials, 1 μg/kg intra-parietally, 45 min after injection) is reported as “small but insignificant effects” and the “wild type PPI levels compared to placebo-injected animals” value ([3]; wild type littermates, pp74/p110 and pp 78/p110 trials, 1 μg/kg intra-parietally, 45 min after injection) is reported as “significantly elevated”.
